As usually defined, the IC50 is the concentration at which inhibition is half-maximal. High values mean weaker potency in that assay, low ones greater potency in that assay. What is called Kd is the constant that tells how readily two partners part at equilibrium. A higher Kd goes with a looser complex.

One assay deals with SARS-CoV-2 M^pro protease (Severe acute respiratory syndrome coronavirus 2 (2019-nCoV) (SARS-CoV-2), UniProt P0DTD1). Description: biochemical. The class given is biochemical. The following applies: Tables 5B-5E; M^pro 75 nM, substrate 10 μM.
Compound `O=C1NC2(CC(c3cn(Cc4ccccc4)nn3)C2)C(=O)N1c1cncc2ccccc12` (stereo not shown) [Compound 47, 2-(1-benzyl-1H-1,2,3-triazol-4-yl)-7-(isoquinolin-4-yl)-5,7-diazaspiro[3.4]octane-6,8-dione] displayed a half-maximal inhibitory concentration (IC50) of 10800 nM.
Same read-out and setting: next, `O=C1NC2(CC(OCc3ccccc3)C2)C(=O)N1c1cncc2ccccc12` (stereo not shown) [Compound 48, 2-(benzyloxy)-7-(isoquinolin-4-yl)-5,7-diazaspiro[3.4]octane-6,8-dione]: 2580 nM.
Regarding `O=C1NC2(CC(c3ccccc3Cl)C2)C(=O)N1c1cncc2ccc(F)cc12` (stereo not shown) [Compound 54, 2-(2-chlorophenyl)-7-(6-fluoroisoquinolin-4-yl)-5,7-diazaspiro[3.4]octane-6,8-dione], the IC50 worked out at 66 nM.
Still for that read-out and setting: next, `O=C1NC2(CC(c3ccccc3Cl)C2)C(=O)N1c1cncc2cc(F)ccc12` (stereo not shown) [Compound 55, 2-(2-chlorophenyl)-7-(7-fluoroisoquinolin-4-yl)-5,7-diazaspiro[3.4]octane-6,8-dione]: 187 nM; `COc1ccc2cncc(N3C(=O)NC4(CC(C5CCC5)C4)C3=O)c2c1` (stereo not shown) [Compound 57, 2-cyclobutyl-7-(6-methoxyisoquinolin-4-yl)-5,7-diazaspiro[3.4]octane-6,8-dione]: 340 nM.
The compound `Cc1ccc2cncc(N3C(=O)NC4(CC(C5CCC5)C4)C3=O)c2c1` (stereo not shown) [Compound 58, 2-cyclobutyl-7-(6-methylisoquinolin-4-yl)-5,7-diazaspiro[3.4]octane-6,8-dione] returned a half-inhibitory concentration (IC50) of 361 nM.
The same measure, in the same setting: the value for `CN1C(=O)N(c2cncc3ccccc23)C(=O)C12CC(c1ccccc1Br)C2` (stereo not shown) [Compound 67, 2-(2-bromophenyl)-7-(isoquinolin-4-yl)-5-methyl-5,7-diazaspiro[3.4]octane-6,8-dione] was 140 nM; that for `CN1C(=O)N(c2cncc3ccccc23)C(=O)C12CC(c1ccccc1Cl)C2` (stereo not shown) [Compound 68, 2-(2-chlorophenyl)-7-(isoquinolin-4-yl)-5-methyl-5,7-diazaspiro[3.4]octane-6,8-dione] was 453 nM.
`CN1C(=O)N(c2cncc3ccccc23)C(=O)C12CC(C1CCC1)C2` (stereo not shown) [Compound 69, 2-cyclobutyl-7-(isoquinolin-4-yl)-5-methyl-5,7-diazaspiro[3.4]octane-6,8-dione] displayed a concentration for half-maximal inhibition (IC50) of 562 nM.
`NC(=O)CN1C(=O)N(c2cncc3ccccc23)C(=O)C12CC(C1CCC1)C2` (stereo not shown) [Compound 70, 2-(2-cyclobutyl-7-(isoquinolin-4-yl)-6,8-dioxo-5,7-diazaspiro[3.4]octan-5-yl)acetamide] gave an IC50 of 944 nM.
In the case of `O=C1N(c2cncc3ccccc23)C(=O)C2(CC(C3CCC3)C2)N1Cc1cc(Cl)nc(Cl)c1` (stereo not shown) [Compound 71, 2-cyclobutyl-5-((2,6-dichloropyridin-4-yl)methyl)-7-(isoquinolin-4-yl)-5,7-diazaspiro[3.4]octane-6,8-dione], inhibition was half-maximal at 1070 nM (IC50).
The same measure, in the same setting: next, `N#CCN1C(=O)N(c2cncc3ccccc23)C(=O)C12CC(C1CCC1)C2` (stereo not shown) [Compound 72, 2-(2-cyclobutyl-7-(isoquinolin-4-yl)-6,8-dioxo-5,7-diazaspiro[3.4]octan-5-yl)acetonitrile]: 1360 nM; `O=C(CN1C(=O)N(c2cncc3ccccc23)C(=O)C12CC(C1CCC1)C2)c1ccccn1` (stereo not shown) [Compound 73, 2-cyclobutyl-7-(isoquinolin-4-yl)-5-(2-oxo-2-(pyridin-2-yl)ethyl)-5,7-diazaspiro[3.4]octane-6,8-dione]: 1440 nM.
The same measure, in the same setting: next, `C=CCN1C(=O)N(c2cncc3ccccc23)C(=O)C12CC(C1CCC1)C2` (stereo not shown) [Compound 74, 5-allyl-2-cyclobutyl-7-(isoquinolin-4-yl)-5,7-diazaspiro[3.4]octane-6,8-dione]: 1510 nM; `CCN1C(=O)N(c2cncc3ccccc23)C(=O)C12CC(C1CCC1)C2` (stereo not shown) [Compound 75, 2-cyclobutyl-5-ethyl-7-(isoquinolin-4-yl)-5,7-diazaspiro[3.4]octane-6,8-dione]: 2000 nM.
`O=C1N(c2cncc3ccccc23)C(=O)C2(CC(C3CCC3)C2)N1Cc1ccccn1` (stereo not shown) [Compound 76, 2-cyclobutyl-7-(isoquinolin-4-yl)-5-(pyridin-2-ylmethyl)-5,7-diazaspiro[3.4]octane-6,8-dione]: the IC50 was 2470 nM.
The compound `O=C1N(c2cncc3ccccc23)C(=O)C2(CC(C3CCC3)C2)N1Cc1ncc[nH]1` (stereo not shown) [Compound 77, 5-((1H-imidazol-2-yl)methyl)-2-cyclobutyl-7-(isoquinolin-4-yl)-5,7-diazaspiro[3.4]octane-6,8-dione] showed an IC50 of 2520 nM.
`O=C1CCCN1CN1C(=O)N(c2cncc3ccccc23)C(=O)C12CC(C1CCC1)C2` (stereo not shown) [Compound 78, 2-cyclobutyl-7-(isoquinolin-4-yl)-5-((2-oxopyrrolidin-1-yl)methyl)-5,7-diazaspiro[3.4]octane-6,8-dione] came in with an IC50 of 3060 nM.
As to `CC(=O)N1C(=O)N(c2cncc3ccccc23)C(=O)C12CC(C1CCC1)C2` (stereo not shown) [Compound 79, 5-acetyl-2-cyclobutyl-7-(isoquinolin-4-yl)-5,7-diazaspiro[3.4]octane-6,8-dione], half-maximal inhibition (IC50) required 3080 nM. The IC50 values of the last two compounds are within 1.5-fold of each other.
Same read-out and setting: the value for `O=C1N(c2cncc3ccccc23)C(=O)C2(CC(C3CCC3)C2)N1Cc1ccn[nH]1` (stereo not shown) [Compound 80, 5-((1H-pyrazol-5-yl)methyl)-2-cyclobutyl-7-(isoquinolin-4-yl)-5,7-diazaspiro[3.4]octane-6,8-dione] was 3820 nM; that for `O=C1NC2(CC(c3ccccc3Cl)C2)C(=O)N1c1cccnn1` (stereo not shown) [Compound 81, 2-(2-chlorophenyl)-7-(pyridazin-3-yl)-5,7-diazaspiro[3.4]octane-6,8-dione] was 419 nM.
For `O=C1NC2(CC(c3ccccc3Cl)C2)C(=O)N1c1cc(Br)cnc1F` (stereo not shown) [Compound 85, 7-(5-bromo-2-fluoropyridin-3-yl)-2-(2-chlorophenyl)-5,7-diazaspiro[3.4]octane-6,8-dione], inhibition was half-maximal at 323 nM (IC50).
Compound `O=C1NC2(CC(c3cc(F)c(F)cc3Cl)C2)C(=O)N1c1cncc2ccccc12` (stereo not shown) [Compound 87, 2-(2-chloro-4,5-difluorophenyl)-7-(isoquinolin-4-yl)-5,7-diazaspiro[3.4]octane-6,8-dione] came in with an IC50 of 115 nM.
Compound `Cc1ccnc(F)c1N1C(=O)NC2(CC(c3ccccc3Cl)C2)C1=O` (stereo not shown) [Compound 90, 2-(2-chlorophenyl)-7-(2-fluoro-4-methylpyridin-3-yl)-5,7-diazaspiro[3.4]octane-6,8-dione] came in with an IC50 of 223 nM.
Consider `COc1ccnc(F)c1N1C(=O)NC2(CC(c3ccccc3Cl)C2)C1=O` (stereo not shown) [Compound 91, 2-(2-chlorophenyl)-7-(2-fluoro-4-methoxypyridin-3-yl)-5,7-diazaspiro[3.4]octane-6,8-dione], for which the half-maximal inhibitory concentration (IC50) is above 50000 nM.
On the same count and under the same terms, next, `O=C1NC2(CC(c3ccccc3Cl)C2)C(=O)N1c1cnccc1C(F)(F)F` (stereo not shown) [Compound 92, 2-(2-chlorophenyl)-7-(4-(trifluoromethyl)pyridin-3-yl)-5,7-diazaspiro[3.4]octane-6,8-dione]: 309 nM.
Compound `CN(C)c1ccncc1N1C(=O)NC2(CC(c3ccccc3Cl)C2)C1=O` (stereo not shown) [Compound 93, 2-(2-chlorophenyl)-7-(4-(dimethylamino)pyridin-3-yl)-5,7-diazaspiro[3.4]octane-6,8-dione] yielded a concentration for half-maximal inhibition (IC50) of 157 nM.
On the same count and under the same terms, next, `O=C1NC2(CC(c3ccccc3Cl)C2)C(=O)N1c1cnnc2ccccc12` (stereo not shown) [Compound 94, 2-(2-chlorophenyl)-7-(cinnolin-4-yl)-5,7-diazaspiro[3.4]octane-6,8-dione]: 1800 nM.
On the same count and under the same terms, next, `CC1(c2ccccc2Cl)CC2(C1)NC(=O)N(c1cncc3ccccc13)C2=O` (stereo not shown) [Compound 95, 2-(2-chlorophenyl)-7-(isoquinolin-4-yl)-2-methyl-5,7-diazaspiro[3.4]octane-6,8-dione]: 69 nM.
`CC1(c2ccccc2Cl)CC2(C1)NC(=O)N(c1cncc3ccccc13)C2=O` (stereo not shown) [Compound 96, 2-(2-chlorophenyl)-7-(isoquinolin-4-yl)-2-methyl-5,7-diazaspiro[3.4]octane-6,8-dione] returned a half-maximal inhibitory concentration (IC50) of 408 nM.
As to `O=C1NC2(CC(c3ccccc3Cl)C2)C(=O)N1c1cncc2nc[nH]c12` (stereo not shown) [Compound 97, 2-(2-chlorophenyl)-7-(1H-imidazo[4,5-c]pyridin-7-yl)-5,7-diazaspiro[3.4]octane-6,8-dione], the IC50 was 287 nM.
On the same count and under the same terms, the value for `O=C1NC2(CC(c3ccccc3Cl)C2)C(=O)N1c1cncc2[nH]c(=O)[nH]c12` (stereo not shown) [Compound 98, 2-(2-chlorophenyl)-7-(2-oxo-2,3-dihydro-1H-imidazo[4,5-c]pyridin-7-yl)-5,7-diazaspiro[3.4]octane-6,8-dione] was 1380 nM; that for `O=C1NC2(CC(c3ccccc3Cl)C2)C(=O)N1c1cncc2nccn12` (stereo not shown) [Compound 99, 2-(2-chlorophenyl)-7-(imidazo[1,2-a]pyrazin-5-yl)-5,7-diazaspiro[3.4]octane-6,8-dione] was 780 nM; that for `O=C1NC2(CC(c3ccccc3Cl)C2)C(=O)N1c1cccnc1` (stereo not shown) [Compound 100, 2-(2-chlorophenyl)-7-(pyridin-3-yl)-5,7-diazaspiro[3.4]octane-6,8-dione] was 295 nM.

Staying with this assay, now noted: percent of control activity at 750 nM; read-out: % activity at 750 nM.
On to `O=C1NC2(CC(c3ccccc3Cl)C2)C(=O)N1c1c(Cl)ncc2ccccc12` (stereo not shown) [Compound 86, 7-(3-chloroisoquinolin-4-yl)-2-(2-chlorophenyl)-5,7-diazaspiro[3.4]octane-6,8-dione], for which the activity at […] is 57%.

The assay is the same for the next values; noted with them: percent of control activity at 2500 nM; read-out: % activity at 2500 nM.
Regarding `O=C1NC2(CC(c3ccccc3Cl)C2)C(=O)N1c1cnccc1Oc1ccccc1` (stereo not shown) [Compound 82, 2-(2-chlorophenyl)-7-(4-phenoxypyridin-3-yl)-5,7-diazaspiro[3.4]octane-6,8-dione], the activity at […] came out at 55%.

The target of a further assay is M^pro (Severe acute respiratory syndrome coronavirus 2 (2019-nCoV) (SARS-CoV-2), UniProt P0DTD1).
Assay: not given
The class given is binding. The following applies: steady-state analysis, 25° C.
In turn, `O=C1NC2(CC(n3cccn3)C2)C(=O)N1c1cncc2ccccc12` (stereo not shown) [Compound 46, 7-(isoquinolin-4-yl)-2-(1H-pyrazol-1-yl)-5,7-diazaspiro[3.4]octane-6,8-dione] had a Kd of 930 nM.
